Legend:
[1] = Toxicity against CB.17 SCID mouse xenografted with human TMD8 cells assessed as body weight loss at 50 to 100 mg/kg/day, po for 21 consecutive days; format: organism-based; settings: in vivo, 504 h, dose 50-100 mg/kg/day, time 21 day
[2] = AUC (0 to infinity) in ICR mouse at 2 mg/kg, iv measured upto 24 hrs by LC-MS/MS analysis; format: ADME, organism-based; parameters: time < 24 hrs, dose 2 mg/kg, route iv; settings: in vivo
[3] = Aqueous solubility of the compound; format: physicochemical; settings: aqueous medium
TMD8 = assay: In vivo antitumor activity against TMD8 cells xenografted in CB.17 SCID mouse assessed as tumor growth inhibition at 100 mg/kg/day, po for 21 consecutive days measured on day 21 by Vernier caliper relative to control; format: functional, Homo sapiens; settings: TMD8, 504 h, time 21 day, read-out: TGI
[4] = Cmax in ICR mouse at 10 mg/kg, po measured upto 24 hrs by LC-MS/MS analysis; format: ADME, organism-based; parameters: dose 10 mg/kg, time < 24 hrs, route po; settings: in vivo
[5] = Cmax in ICR mouse at 100 mg/kg, po measured upto 24 hrs by LC-MS/MS analysis; format: ADME, organism-based; parameters: time < 24 hrs, dose 100 mg/kg, route po; settings: in vivo
[6] = Half life in ICR mouse at 2 mg/kg, iv measured upto 24 hrs by LC-MS/MS analysis; format: ADME, organism-based; settings: in vivo
[7] = Half life in ICR mouse at 10 mg/kg, po measured upto 24 hrs by LC-MS/MS analysis; format: ADME, organism-based; settings: in vivo
[8] = Half life in ICR mouse at 100 mg/kg, po measured upto 24 hrs by LC-MS/MS analysis; format: ADME, organism-based; settings: in vivo
[9] = AUC (0 to infinity) in ICR mouse at 10 mg/kg, po measured upto 24 hrs by LC-MS/MS analysis; format: ADME, organism-based; parameters: time < 24 hrs, dose 10 mg/kg, route po; settings: in vivo
[10] = AUC (0 to infinity) in ICR mouse at 100 mg/kg, po measured upto 24 hrs by LC-MS/MS analysis; format: ADME, organism-based; parameters: dose 100 mg/kg, time < 24 hrs, route po; settings: in vivo
[11] = MRT in ICR mouse at 2 mg/kg, iv measured upto 24 hrs by LC-MS/MS analysis; format: ADME, organism-based; settings: in vivo
[12] = MRT in ICR mouse at 10 mg/kg, po measured upto 24 hrs by LC-MS/MS analysis; format: ADME, organism-based; settings: in vivo
[13] = MRT in ICR mouse at 100 mg/kg, po measured upto 24 hrs by LC-MS/MS analysis; format: ADME, organism-based; settings: in vivo
[14] = Clearance in ICR mouse at 2 mg/kg, iv measured upto 24 hrs by LC-MS/MS analysis; format: ADME, organism-based; settings: in vivo
[15] = Oral bioavailability in ICR mouse at 10 mg/kg measured upto 24 hrs by LC-MS/MS analysis; format: ADME, organism-based; settings: in vivo
[16] = Oral bioavailability in ICR mouse at 100 mg/kg measured upto 24 hrs by LC-MS/MS analysis; format: ADME, organism-based; settings: in vivo
[17] = Cmax in monkey plasma at 10 mg/kg, po measured upto 24 hrs by LC-MS/MS analysis; format: ADME, organism-based, Macaca fascicularis; parameters: time < 24 hrs, dose 10 mg/kg, route po; settings: cynomolgus monkey
[18] = Cmax in dog plasma at 10 mg/kg, po measured upto 24 hrs by LC-MS/MS analysis; format: ADME, organism-based, Canis lupus familiaris; parameters: time < 24 hrs, dose 10 mg/kg, route po
[19] = Half life in monkey plasma at 1 mg/kg, iv measured upto 24 hrs by LC-MS/MS analysis; format: ADME, organism-based, Macaca fascicularis; settings: cynomolgus monkey
[20] = Half life in monkey plasma at 10 mg/kg, po measured upto 24 hrs by LC-MS/MS analysis; format: ADME, organism-based, Macaca fascicularis; settings: cynomolgus monkey
[21] = Half life in dog plasma at 1 mg/kg, iv measured upto 24 hrs by LC-MS/MS analysis; format: ADME, organism-based, Canis lupus familiaris
[22] = Half life in dog plasma at 10 mg/kg, po measured upto 24 hrs by LC-MS/MS analysis; format: ADME, organism-based, Canis lupus familiaris
[23] = AUC (0 to infinity) in monkey plasma at 1 mg/kg, iv measured upto 24 hrs by LC-MS/MS analysis; format: ADME, organism-based, Macaca fascicularis; parameters: time < 24 hrs, dose 1 mg/kg, route iv; settings: cynomolgus monkey
[24] = AUC (0 to infinity) in monkey plasma at 10 mg/kg, po measured upto 24 hrs by LC-MS/MS analysis; format: ADME, organism-based, Macaca fascicularis; parameters: time < 24 hrs, dose 10 mg/kg, route po; settings: cynomolgus monkey
[25] = AUC (0 to infinity) in dog plasma at 1 mg/kg, iv measured upto 24 hrs by LC-MS/MS analysis; format: ADME, organism-based, Canis lupus familiaris; parameters: dose 1 mg/kg, time < 24 hrs, route iv
[26] = AUC (0 to infinity) in dog plasma at 10 mg/kg, po measured upto 24 hrs by LC-MS/MS analysis; format: ADME, organism-based, Canis lupus familiaris; parameters: time < 24 hrs, dose 10 mg/kg, route po
[27] = MRT in monkey plasma at 1 mg/kg, iv measured upto 24 hrs by LC-MS/MS analysis; format: ADME, organism-based, Macaca fascicularis; settings: cynomolgus monkey
[28] = MRT in monkey plasma at 10 mg/kg, po measured upto 24 hrs by LC-MS/MS analysis; format: ADME, organism-based, Macaca fascicularis; settings: cynomolgus monkey
[29] = MRT in dog plasma at 1 mg/kg, iv measured upto 24 hrs by LC-MS/MS analysis; format: ADME, organism-based, Canis lupus familiaris
[30] = MRT in dog plasma at 10 mg/kg, po measured upto 24 hrs by LC-MS/MS analysis; format: ADME, organism-based, Canis lupus familiaris
[31] = Clearance in monkey plasma at 1 mg/kg, iv measured upto 24 hrs by LC-MS/MS analysis; format: ADME, organism-based, Macaca fascicularis; settings: cynomolgus monkey, in vivo
[32] = Clearance in dog plasma at 1 mg/kg, iv measured upto 24 hrs by LC-MS/MS analysis; format: ADME, organism-based, Canis lupus familiaris; settings: in vivo
[33] = Volume of distribution at steady state in monkey plasma at 1 mg/kg, iv measured upto 24 hrs by LC-MS/MS analysis; format: ADME, organism-based, Macaca fascicularis; settings: cynomolgus monkey, read-out: Vdss
[34] = Volume of distribution at steady state in dog plasma at 1 mg/kg, iv measured upto 24 hrs by LC-MS/MS analysis; format: ADME, organism-based, Canis lupus familiaris; settings: read-out: Vdss
[35] = Oral bioavailability in monkey plasma at 10 mg/kg measured upto 24 hrs by LC-MS/MS analysis; format: ADME, organism-based, Macaca fascicularis; settings: cynomolgus monkey
[36] = Oral bioavailability in dog plasma at 10 mg/kg measured upto 24 hrs by LC-MS/MS analysis; format: ADME, organism-based, Canis lupus familiaris
[37] = Toxicity against CB.17 SCID mouse xenografted with human TMD8 cells assessed as effect on heart at 100 mg/kg/day, po for 21 consecutive days by H and E staining method; format: organism-based; settings: in vivo, 504 h, time 21 day
[38] = Toxicity against CB.17 SCID mouse xenografted with human TMD8 cells assessed as effect on liver at 100 mg/kg/day, po for 21 consecutive days by H and E staining method; format: organism-based; settings: in vivo, 504 h, time 21 day
[39] = Toxicity against CB.17 SCID mouse xenografted with human TMD8 cells assessed as effect on lung at 100 mg/kg/day, po for 21 consecutive days by H and E staining method; format: organism-based; settings: in vivo, 504 h, time 21 day
[40] = Toxicity against CB.17 SCID mouse xenografted with human TMD8 cells assessed as effect on kidney at 100 mg/kg/day, po for 21 consecutive days by H and E staining method; format: organism-based; settings: in vivo, 504 h, time 21 day
[41] = Toxicity against CB.17 SCID mouse xenografted with human TMD8 cells assessed as effect on spleen at 100 mg/kg/day, po for 21 consecutive days by H and E staining method; format: organism-based; settings: in vivo, 504 h, time 21 day

SMILES: Cl.Nc1ccccc1NC(=O)c1ccc(CN2CCC/C(=C\c3ccccn3)C2=O)cc1
- Activity [1]: Non-Toxic
- AUC(0-inf) [2]: 1250 ng·h/mL
- solubility [3]: > 100 mg/mL
- inhibition in vivo at 100 mg/kg/day (TMD8): 77%
- Cmax [4]: 3960 ng/mL
- Cmax [5]: 58300 ng/mL
- half-life [6]: 0.427 h
- half-life [7]: 1.31 h
- half-life [8]: 1.63 h
- AUC(0-inf) [9]: 2670 ng·h/mL
- AUC(0-inf) [10]: 57200 ng·h/mL
- MRT [11]: 0.402 h
- MRT [12]: 0.919 h
- MRT [13]: 0.897 h
- clearance [14]: 27.2 mL/min/kg
- bioavailability [15]: 45.6%
- bioavailability [16]: 91.8%
- Cmax [17]: 8520 ng/mL
- Cmax [18]: 4740 ng/mL
- half-life [19]: 4.31 h
- half-life [20]: 9.14 h
- half-life [21]: 1.65 h
- half-life [22]: 1.51 h
- AUC(0-inf) [23]: 15700 ng·h/mL
- AUC(0-inf) [24]: 53200 ng·h/mL
- AUC(0-inf) [25]: 2550 ng·h/mL
- AUC(0-inf) [26]: 15100 ng·h/mL
- MRT [27]: 3.41 h
- MRT [28]: 8.28 h
- MRT [29]: 2.26 h
- MRT [30]: 2.71 h
- clearance [31]: 1.35 mL/min/kg
- clearance [32]: 6.72 mL/min/kg
- Vd [33]: 0.34 L/kg
- Vd [34]: 0.55 L/kg
- bioavailability [35]: 27.6%
- bioavailability [36]: 58.9%
- Activity [37]: Non-Toxic
- Activity [38]: Non-Toxic
- Activity [39]: Non-Toxic
- Activity [40]: Non-Toxic
- Activity [41]: Non-Toxic

— ChEMBL document CHEMBL5154672, “Design and synthesis of HDAC inhibitors to enhance the therapeutic effect of diffuse large B-cell lymphoma by improving metabolic stability and pharmacokinetic characteristics” (Eur J Med Chem, 2022)
